This note sets out measurements from patent US11813306B2, “Cyclic tetramer compounds as proprotein convertase subtilisin/kexin type 9 (PCSK9) inhibitors for the treatment of metabolic disorders” (NOVARTIS AG, priority 2018, dated 2023).

The experiment deals with human PCSK9 (Homo sapiens, UniProt Q8NBP7). The experiment is described as follows: PCSK9 ligand binding assay (TR-FRET): interference with binding of human PCSK9 to human LDLR. The conditions noted are these: for IC50: Human PCSK9 Alexa Fluor 647 / Human LDLR extracellular domain-Europium Kryptate; for Max % inhibition: efficacy (Amax), 100% = 1 uM unlabeled human PCSK9, 0% = DMSO. In a few lines: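 Read-out was TR-FRET ratio (665 nm over 615 nm, 330 nm excitation) between Alexa Fluor 647-human PCSK9 (16 nM added) and Europium Kryptate-human LDLR ectodomain (4 nM added). Compound and PCSK9 were mixed 30 min before LDLR, then incubated 2 h. Inhibition was normalised to DMSO and unlabelled-PCSK9 controls, giving IC50 and Amax.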
Chain of human PCSK9 (Q8NBP7 153-692): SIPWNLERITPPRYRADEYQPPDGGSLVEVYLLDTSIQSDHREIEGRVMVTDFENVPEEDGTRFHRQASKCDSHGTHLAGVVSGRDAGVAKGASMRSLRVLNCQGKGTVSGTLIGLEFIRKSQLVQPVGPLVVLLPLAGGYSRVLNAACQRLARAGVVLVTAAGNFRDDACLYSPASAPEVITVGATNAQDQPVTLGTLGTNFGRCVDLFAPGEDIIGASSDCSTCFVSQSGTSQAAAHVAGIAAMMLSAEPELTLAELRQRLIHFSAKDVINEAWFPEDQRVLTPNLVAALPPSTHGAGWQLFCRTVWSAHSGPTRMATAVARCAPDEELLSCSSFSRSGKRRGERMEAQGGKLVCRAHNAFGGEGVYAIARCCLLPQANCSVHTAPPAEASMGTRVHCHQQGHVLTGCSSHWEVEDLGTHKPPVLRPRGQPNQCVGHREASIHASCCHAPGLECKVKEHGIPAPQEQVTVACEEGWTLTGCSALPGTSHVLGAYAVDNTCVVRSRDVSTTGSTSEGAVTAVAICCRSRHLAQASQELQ
Chain of human PCSK9 (Q8NBP7 31-152 partner limits assumed): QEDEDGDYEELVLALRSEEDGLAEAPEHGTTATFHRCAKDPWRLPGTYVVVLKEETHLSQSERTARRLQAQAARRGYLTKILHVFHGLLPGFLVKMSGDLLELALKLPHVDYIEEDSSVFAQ
For orientation: Time-resolved FRET reads energy transfer from a long-lived donor to a nearby acceptor.

Counter-ions that a name gives are not always drawn.

In general, IC50 refers to the midpoint of a concentration-inhibition curve. Low values mean inhibition by little substance, high ones a need for much substance. Turning to `CNCc1ncc(-c2ccc(Oc3cc(Cl)cc(F)c3CN3C(=O)C[C@@H](Cc4cccc(C)n4)C(=O)N4CCC[C@@](Cc5ccc(Cl)cc5)(C4)N(C)C(=O)[C@H](COC)NC(=O)[C@@H]3C)cc2)n1C` [Compound 167, (3R,7S,10S,13R)-6-(4-chloro-2-fluoro-6-(4-(1-methyl-2-((methylamino)methyl)-1H-imidazol-5-yl)phenoxy)benzyl)-13-(4-chlorobenzyl)-10-(methoxymethyl)-7,12-dimethyl-3-((6-methylpyridin-2-yl)methyl)-1,6,9,12-tetraazabicyclo[11.3.1]heptadecane-2,5,8,11-tetraone], the IC50 turned out to be 0.9 nM and the Max % inhibition was found to be 108.6%.

As for `COC[C@@H]1NC(=O)[C@H](C)N(Cc2c(F)cc(Cl)cc2Oc2ccc(-c3cnc(CN(C)C)n3C)cc2)C(=O)C[C@@H](Cc2cccc(C)[n+]2[O-])C(=O)N2CCC[C@@](Cc3ccc(Cl)cc3)(C2)N(C)C1=O` [Compound 168, 2-(((3R, 7S, 10S, 13R)-6-(4-chloro-2-(4-(2-((dimethylamino)methyl)-1-methyl-1H-imidazol-5-yl)phenoxy)-6-fluorobenzyl)-13-(4-chlorobenzyl)-10-(methoxymethyl)-7,12-dimethyl-2,5,8,11-tetraoxo-1,6,9,12-tetraazabicyclo[11.3.1]heptadecan-3-yl)methyl)-6-methylpyridine 1-oxide], the IC50 is 0.81 nM and the Max % inhibition was found to be 114.9%.

For `COC[C@@H]1NC(=O)[C@H](C)N(Cc2c(F)cc(Cl)cc2Oc2ccc(-c3cnc(CN(C)C(C)(C)C)n3C)cc2)C(=O)C[C@@H](C2CC(F)(F)C2)C(=O)N2CCC[C@@](Cc3ccc(Cl)cc3)(C2)N(C)C1=O` [Compound 169, (3S, 7S, 10S, 13R)-6-(2-(4-(2-((tert-butyl(methyl)amino)methyl)-1-methyl-1H-imidazol-5-yl)phenoxy)-4-chloro-6-fluorobenzyl)-13-(4-chlorobenzyl)-3-(3,3-difluorocyclobutyl)-10-(methoxymethyl)-7,12-dimethyl-1,6,9,12-tetraazabicyclo[11.3.1]heptadecane-2,5,8,11-tetraone], the half-maximal inhibitory concentration (IC50) was found to be 0.85 nM and the Max % inhibition came to 113.1%.

On to `Cc1cccc(C[C@@H]2CC(=O)N(Cc3c(F)cc(Cl)cc3Oc3ccc(-c4cnc(CN(C)C)n4C)cc3)[C@@H](C)C(=O)N[C@@H](CO)C(=O)N(C)[C@@]3(Cc4ccc(Cl)cc4)CCCN(C3)C2=O)n1` [Compound 170, (3R,7S,10S,13R)-6-(4-chloro-2-(4-(2-((dimethylamino)methyl)-1-methyl-1H-imidazol-5-yl)phenoxy)-6-fluorobenzyl)-13-(4-chlorobenzyl)-10-(hydroxymethyl)-7,12-dimethyl-3-((6-methylpyridin-2-yl)methyl)-1,6,9,12-tetraazabicyclo[11.3.1]heptadecane-2,5,8,11-tetraone], for which the IC50 was 0.73 nM and the Max % inhibition stood at 115.0%.

For `COC[C@@H]1NC(=O)[C@H](C)N(Cc2c(F)cc(Cl)cc2Oc2ccc(-c3cnc(CN(C)C)n3C)nc2)C(=O)C[C@@H](C2CC(F)(F)C2)C(=O)N2CCC[C@@](Cc3ccc(Cl)cc3)(C2)N(C)C1=O` [Compound 171], the IC50 was determined as 1.03 nM and the Max % inhibition was found to be 107.8%.

For the compound `CNCc1ncc(-c2ccc(Oc3cc(Cl)cc(F)c3CN3C(=O)C[C@@H](CC(F)(F)F)C(=O)N4CCC[C@@](Cc5ccc(Cl)cc5)(C4)N(C)C(=O)[C@H](COC)NC(=O)[C@@H]3C)cc2)n1C` [Compound 172, (3S, 7S, 10S, 13R)-6-(4-chloro-2-fluoro-6-(4-(1-methyl-2-((methylamino)methyl)-1H-imidazol-5-yl)phenoxy)benzyl)-13-(4-chlorobenzyl)-10-(methoxymethyl)-7,12-dimethyl-3-(2,2,2-trifluoroethyl)-1,6,9,12-tetraazabicyclo[11.3.1]heptadecane-2,5,8,11-tetraone], the IC50 turned out to be 0.57 nM and the Max % inhibition is 104.8%.

In the case of `COC[C@@H]1NC(=O)[C@H](C)N(Cc2c(F)cc(Cl)cc2Oc2ccc(-c3cnc(CN(C)C)n3C)nc2)C(=O)C[C@@H](CC(F)(F)F)C(=O)N2CCC[C@@](Cc3ccc(Cl)cc3)(C2)N(C)C1=O` [Compound 173], the IC50 is 1.37 nM and the Max % inhibition came out at 107.7%.

As to `COC[C@@H]1NC(=O)[C@H](C)N(Cc2c(F)cc(Cl)cc2Oc2ccc(-c3cnc(CN(C)C)n3C)cc2)C(=O)C[C@@H](C2CCOCC2)C(=O)N2CCC[C@@](Cc3ccc(Cl)cc3)(C2)N(C)C1=O` [Compound 174, (3S, 7S, 10S, 13R)-6-(4-chloro-2-(4-(2-((dimethylamino)methyl)-1-methyl-1H-imidazol-5-yl)phenoxy)-6-fluorobenzyl)-13-(4-chlorobenzyl)-10-(methoxymethyl)-7,12-dimethyl-3-(tetrahydro-2H-pyran-4-yl)-1,6,9,12-tetraazabicyclo[11.3.1]heptadecane-2,5,8,11-tetraone], the IC50 is 2.2 nM and the Max % inhibition is given as 110.7%.

With `C[C@H]1C(=O)N[C@@H](COC(F)F)C(=O)N(C)[C@@]2(Cc3ccc(Cl)cc3)CCCN(C2)C(=O)[C@H](CC(F)(F)F)CC(=O)N1Cc1c(F)cc(Cl)cc1Oc1ccc(-c2cnc(CN(C)C)n2C)cc1` [Compound 175, (3S, 7S, 10S, 13R)-6-(4-chloro-2-(4-(2-((dimethylamino)methyl)-1-methyl-1H-imidazol-5-yl)phenoxy)-6-fluorobenzyl)-13-(4-chlorobenzyl)-10-((difluoromethoxy)methyl)-7,12-dimethyl-3-(2,2,2-trifluoroethyl)-1,6,9,12-tetraazabicyclo[11.3.1]heptadecane-2,5,8,11-tetraone], the IC50 was found to be 2.56 nM and the Max % inhibition is listed as 114.7%.

As to `COC[C@@H]1NC(=O)[C@@H](C)N(Cc2c(F)cc(Cl)cc2Oc2ccc(-c3cnc(CN(C)C)n3C)nc2)C(=O)C[C@@H](CC(F)(F)F)C(=O)N2CCC[C@@](Cc3ccc(Cl)cc3)(C2)N(C)C1=O` [Compound 176, (3S, 7R, 10S, 13R)-6-(4-chloro-2-((6-(2-((dimethylamino)methyl)-1-methyl-1H-imidazol-5-yl)pyridin-3-yl)oxy)-6-fluorobenzyl)-13-(4-chlorobenzyl)-10-(methoxymethyl)-7,12-dimethyl-3-(2,2,2-trifluoroethyl)-1,6,9,12-tetraazabicyclo[11.3.1]heptadecane-2,5,8,11-tetraone], the IC50 is 76.3 nM and the Max % inhibition is 86.3%.

As to `CNCc1ncc(-c2ccc(Oc3cc(Cl)cc(F)c3CN3C(=O)C[C@@H](CC(F)(F)F)C(=O)N4CCC[C@@](Cc5ccc(Cl)cc5)(C4)N(C)C(=O)[C@H](CO)NC(=O)[C@@H]3C)cc2)n1C` [Compound 177, (3S,7S,10S,13R)-6-(4-chloro-2-fluoro-6-(4-(1-methyl-2-((methylamino)methyl)-1H-imidazol-5-yl)phenoxy)benzyl)-13-(4-chlorobenzyl)-10-(hydroxymethyl)-7,12-dimethyl-3-(2,2,2-trifluoroethyl)-1,6,9,12-tetraazabicyclo[11.3.1]heptadecane-2,5,8,11-tetraone trifluoroacetate], the half-inhibitory concentration (IC50) worked out at 52.7 nM and the Max % inhibition is recorded as 108.8%.
